Calls of active or inactive are those of the source. No cut-off for these calls is given here.
How the values were obtained:
SH-SY5Y [1] = assay: Neuroprotective activity in human SH-SY5Y cells assessed as reduction in H2O2-induced cell death at 1 uM preincubated for 1 hr followed by H2O2 addition and measured after 4 hrs by MTT assay relative to control; assay type: functional
SH-SY5Y [2] = assay: Neuroprotective activity in human SH-SY5Y cells assessed as reduction in H2O2-induced cell death at 100 uM preincubated for 1 hr followed by H2O2 addition and measured after 4 hrs by MTT assay; assay type: functional, cell-based
SH-SY5Y [3] = assay: Neuroprotective activity in human SH-SY5Y cells assessed as reduction in H2O2-induced cell death at 10 uM preincubated for 1 hr followed by H2O2 addition and measured after 4 hrs by MTT assay; assay type: functional, cell-based
SH-SY5Y [4] = assay: Cytotoxicity against human SH-SY5Y cells at 100 uM; assay type: cell-based

Row | Compound | Activity (SH-SY5Y [1]) | Activity (SH-SY5Y [2]) | Activity (SH-SY5Y [3]) | Activity (SH-SY5Y [4])
1 | Cc1c(C)c2c(c(C)c1O)CCC(C)(C(=O)O)O2 (stereo not given) | inactive | – | – | –
2 | C/C=C(/C)C(=O)OCc1c(C(C)=O)c(O)c(OC)c2c1[C@@H](C)[C@@H](O)C=C2 | inactive | Active | Active | –
3 | CCOCc1c2c(C)cccc2c(OC)c2occ(C)c12 | inactive | Active | Active | –
4 | Cc1coc2c1[C@](C)(O)c1c(ccc(O)c1C)C2=O | Active | – | Active | Toxic
5 | COc1c(O)c(C(C)=O)c(C)c2c1C=C[C@H](O)[C@@H]2C | inactive | Active | Active | –
6 | COc1c2c(c(C)c3c(C)coc13)[C@@H](C)[C@@H](O)C=C2 | >10% | Active | Active | –
7 | COCc1c2c(C)cccc2c(OC)c2occ(C)c12 | >10% | Active | Active | –
8 | COc1c(O)c(C(C)=O)c(C)c2c(C)cccc12 | inactive | Active | Active | –
9 | COc1c2c(c(C)c3c(C)coc13)[C@H](CO)[C@H](O)C=C2 | >10% | Active | Active | –
10 | COC[C@@]1(O)c2c(C)cccc2C(=O)c2occ(C)c21 | Active | – | – | Toxic
11 | COc1c2cccc(C)c2c(C)c2c(C)coc12 | >10% | Active | Active | –
12 | Cc1cccc2c1[C@@](C)(O)c1c(C)coc1C2=O | Active | – | Active | Toxic
13 | C/C=C(/C)C(=O)OC[C@H]1c2c(c(OC)c3occ(C)c3c2C)C=C[C@H]1OC | >10% | Active | Active | –
14 | COc1c2c(c(C)c3c(C)coc13)[C@@H](C)[C@@H](O)CC2 | inactive | Active | Active | –
15 | COc1c2cccc(C)c2c(CO)c2c(C)coc12 | inactive | Active | Active | –
16 | COc1c2cccc(C)c2cc2c(C)coc12 | inactive | Active | Active | –
17 | COc1c2c(c(C)c3c(C)coc13)[C@@H](C)[C@@H]1O[C@@H]1[C@H]2O | inactive | Active | Active | –
18 | Cc1cccc2c1C(=O)c1c(C)coc1C2=O | inactive | Active | Active | –
19 | COc1c(O)c(C(C)=O)c(C)c2c1C=CC[C@@H]2C | inactive | Active | Active | –
20 | C/C=C(/C)C(=O)OC[C@@H]1c2c(c(OC)c3occ(C)c3c2C)C=C[C@@H]1O | >10% | Active | Active | –
21 | COC[C@H]1c2c(c(OC)c3occ(C)c3c2C)C=C[C@H]1O | >10% | Active | Active | –

From ChEMBL document CHEMBL4602671, “Modified Eremophilanes from Parasenecio hastatus and Their Neuroprotective Activities” (J Nat Prod, 2020)
